PubChem BioAssay (NCI)
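Five compound concentrations were applied to cells in 96-well plates for 48 hours; endpoints were derived by simple linear interpolation of the resulting dose-response curve. Definition used: TGI = concentration required for complete inhibition of growth.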

How the values were obtained:
Test in all cases: inhibition of tumour cell growth, NCI panel, 48 h
MCF7 breast = tested on: MCF7 breast
SW-620 colon = tested on: SW-620 colon
HCC-2998 colon = tested on: HCC-2998 colon
MOLT-4 leukemia = tested on: MOLT-4 leukemia
SF-268 CNS = tested on: SF-268 CNS
ACHN renal = tested on: ACHN renal
SF-539 CNS = tested on: SF-539 CNS
HCT-116 colon = tested on: HCT-116 colon
KM12 colon = tested on: KM12 colon
K-562 leukemia = tested on: K-562 leukemia
MDA-MB-231 breast = tested on: MDA-MB-231 breast
OVCAR-4 ovarian = tested on: OVCAR-4 ovarian
SK-MEL-5 melanoma = tested on: SK-MEL-5 melanoma
OVCAR-5 ovarian = tested on: OVCAR-5 ovarian
DU-145 prostate = tested on: DU-145 prostate
EKVX NSCLC = tested on: EKVX NSCLC
TK-10 renal = tested on: TK-10 renal
U251 CNS = tested on: U251 CNS
SNB-19 CNS = tested on: SNB-19 CNS
NCI-H226 lung = tested on: NCI-H226 lung
SN12C renal = tested on: SN12C renal
CAKI-1 renal = tested on: CAKI-1 renal
M14 melanoma = tested on: M14 melanoma
A549 NSCLC = tested on: A549 NSCLC
SNB-75 CNS = tested on: SNB-75 CNS
UACC-257 melanoma = tested on: UACC-257 melanoma
HOP-92 NSCLC = tested on: HOP-92 NSCLC
IGROV1 ovarian = tested on: IGROV1 ovarian
PC-3 prostate = tested on: PC-3 prostate
RXF 393 renal = tested on: RXF 393 renal
HL-60(TB) leukemia = tested on: HL-60(TB) leukemia
HOP-62 NSCLC = tested on: HOP-62 NSCLC
MDA-N = tested on: MDA-N
A498 renal = tested on: A498 renal
HT29 colon = tested on: HT29 colon
UO-31 renal = tested on: UO-31 renal
CCRF-CEM leukemia = tested on: CCRF-CEM leukemia
NCI-H522 lung = tested on: NCI-H522 lung
UACC-62 melanoma = tested on: UACC-62 melanoma
SR leukemia = tested on: SR leukemia
NCI/ADR-RES ovarian = tested on: NCI/ADR-RES ovarian
HCT-15 colon = tested on: HCT-15 colon
NCI-H23 lung = tested on: NCI-H23 lung
BT-549 breast = tested on: BT-549 breast
LOX IMVI melanoma = tested on: LOX IMVI melanoma
HS 578T breast = tested on: HS 578T breast
RPMI-8226 leukemia = tested on: RPMI-8226 leukemia
786-0 renal = tested on: 786-0 renal
NCI-H460 lung = tested on: NCI-H460 lung
COLO 205 colon = tested on: COLO 205 colon
MDA-MB-435 = tested on: MDA-MB-435
SK-MEL-2 melanoma = tested on: SK-MEL-2 melanoma
SK-MEL-28 melanoma = tested on: SK-MEL-28 melanoma
MALME-3M melanoma = tested on: MALME-3M melanoma
T-47D breast = tested on: T-47D breast
OVCAR-8 ovarian = tested on: OVCAR-8 ovarian
SF-295 CNS = tested on: SF-295 CNS
SK-OV-3 ovarian = tested on: SK-OV-3 ovarian
OVCAR-3 ovarian = tested on: OVCAR-3 ovarian

Which results are given for `O=c1[nH]cnc2c1ncn2[C@@H]1C[C@H]1CO`?
TGI (MCF7 breast): > 100 µM; TGI (SW-620 colon): > 100 µM; TGI (HCC-2998 colon): > 100 µM; TGI (MOLT-4 leukemia): > 100 µM; TGI (SF-268 CNS): > 100 µM; TGI (ACHN renal): > 100 µM; TGI (SF-539 CNS): > 100 µM; TGI (HCT-116 colon): > 100 µM; TGI (KM12 colon): > 100 µM; TGI (K-562 leukemia): > 100 µM; TGI (MDA-MB-231 breast): > 100 µM; TGI (OVCAR-4 ovarian): > 100 µM; TGI (SK-MEL-5 melanoma): > 100 µM; TGI (OVCAR-5 ovarian): > 100 µM; TGI (DU-145 prostate): > 100 µM; TGI (EKVX NSCLC): > 100 µM; TGI (TK-10 renal): > 100 µM; TGI (U251 CNS): > 100 µM; TGI (SNB-19 CNS): > 100 µM; TGI (NCI-H226 lung): > 100 µM; TGI (SN12C renal): > 100 µM; TGI (CAKI-1 renal): > 100 µM; TGI (M14 melanoma): > 100 µM; TGI (A549 NSCLC): > 100 µM; TGI (SNB-75 CNS): > 100 µM; TGI (UACC-257 melanoma): > 100 µM; TGI (HOP-92 NSCLC): > 100 µM; TGI (IGROV1 ovarian): > 100 µM; TGI (PC-3 prostate): > 100 µM; TGI (RXF 393 renal): > 100 µM; TGI (HL-60(TB) leukemia): > 100 µM; TGI (HOP-62 NSCLC): > 100 µM; TGI (MDA-N): > 100 µM; TGI (A498 renal): > 100 µM; TGI (HT29 colon): > 100 µM; TGI (UO-31 renal): > 100 µM; TGI (CCRF-CEM leukemia): > 100 µM; TGI (NCI-H522 lung): > 100 µM; TGI (UACC-62 melanoma): > 100 µM; TGI (SR leukemia): > 100 µM; TGI (NCI/ADR-RES ovarian): > 100 µM; TGI (HCT-15 colon): > 100 µM; TGI (NCI-H23 lung): > 100 µM; TGI (BT-549 breast): > 100 µM; TGI (LOX IMVI melanoma): > 100 µM; TGI (HS 578T breast): > 100 µM; TGI (RPMI-8226 leukemia): > 100 µM; TGI (786-0 renal): > 100 µM; TGI (NCI-H460 lung): > 100 µM; TGI (COLO 205 colon): > 100 µM; TGI (MDA-MB-435): > 100 µM; TGI (SK-MEL-2 melanoma): > 100 µM; TGI (SK-MEL-28 melanoma): > 100 µM; TGI (MALME-3M melanoma): > 100 µM; TGI (T-47D breast): > 100 µM; TGI (OVCAR-8 ovarian): > 100 µM

`CN1CCN(CCCCN2c3ccccc3Sc3cc(N=[N+]=[N-])ccc32)CC1` was tested. Which TGI (MCF7 breast) did it give?
Its TGI is 3.63 µM.

What about the TGI (SW-620 colon) of the same molecule?
The TGI was 3.47 µM.

And the TGI (HCC-2998 colon)?
Its TGI is 2.92 µM.

And the TGI (MOLT-4 leukemia)?
Its TGI is 4.12 µM.

And the TGI (SF-268 CNS)?
The TGI was 22.4 µM.

And the TGI (ACHN renal)?
Its TGI is 4.56 µM.

And the TGI (SF-295 CNS)?
The TGI was 5.65 µM.

What about the TGI (SF-539 CNS) of the same molecule?
Its TGI is 8.31 µM.

What about the TGI (HCT-116 colon) of the same molecule?
The TGI was 2.98 µM.

What about the TGI (KM12 colon) of the same molecule?
Its TGI is 3.48 µM.

What about the TGI (K-562 leukemia) of the same molecule?
The TGI was 3.04 µM.

What about the TGI (MDA-MB-231 breast) of the same molecule?
Its TGI is 4.14 µM.

What about the TGI (OVCAR-4 ovarian) of the same molecule?
The TGI was 7.5 µM.

What about the TGI (SK-MEL-5 melanoma) of the same molecule?
Its TGI is 3.04 µM.

And the TGI (OVCAR-5 ovarian)?
The TGI was 25.8 µM.

And the TGI (DU-145 prostate)?
The TGI was 15.1 µM.

And the TGI (EKVX NSCLC)?
The TGI was 15.1 µM.

And the TGI (TK-10 renal)?
Its TGI is 3.43 µM.

And the TGI (U251 CNS)?
Its TGI is 7.83 µM.

What about the TGI (SNB-19 CNS) of the same molecule?
The TGI was 10.8 µM.

And the TGI (NCI-H226 lung)?
Its TGI is 12.6 µM.

What about the TGI (SN12C renal) of the same molecule?
Its TGI is 6.46 µM.

What about the TGI (CAKI-1 renal) of the same molecule?
The TGI was 5.32 µM.

And the TGI (M14 melanoma)?
Its TGI is 3.28 µM.

What about the TGI (A549 NSCLC) of the same molecule?
The TGI was 3.93 µM.

And the TGI (SK-OV-3 ovarian)?
The TGI was 22 µM.

What about the TGI (SNB-75 CNS) of the same molecule?
Its TGI is 10.1 µM.

What about the TGI (UACC-257 melanoma) of the same molecule?
Its TGI is 3.89 µM.

And the TGI (HOP-92 NSCLC)?
The TGI was 6.43 µM.

What about the TGI (IGROV1 ovarian) of the same molecule?
Its TGI is 4.26 µM.

What about the TGI (PC-3 prostate) of the same molecule?
The TGI was 3.57 µM.

And the TGI (RXF 393 renal)?
Its TGI is 9.83 µM.

And the TGI (HL-60(TB) leukemia)?
The TGI was 6.08 µM.

What about the TGI (HOP-62 NSCLC) of the same molecule?
Its TGI is 6.63 µM.

What about the TGI (MDA-N) of the same molecule?
The TGI was 11.2 µM.

And the TGI (A498 renal)?
Its TGI is 22.8 µM.

What about the TGI (HT29 colon) of the same molecule?
Its TGI is 3.03 µM.

What about the TGI (UO-31 renal) of the same molecule?
Its TGI is 3.76 µM.

What about the TGI (CCRF-CEM leukemia) of the same molecule?
The TGI was 4.66 µM.

What about the TGI (NCI-H522 lung) of the same molecule?
Its TGI is 3.31 µM.

And the TGI (UACC-62 melanoma)?
Its TGI is 3.92 µM.

And the TGI (SR leukemia)?
Its TGI is over 100 µM.

What about the TGI (NCI/ADR-RES ovarian) of the same molecule?
Its TGI is 7.86 µM.

And the TGI (HCT-15 colon)?
Its TGI is 5.68 µM.

What about the TGI (NCI-H23 lung) of the same molecule?
Its TGI is 18.7 µM.

And the TGI (BT-549 breast)?
Its TGI is 21.9 µM.

What about the TGI (LOX IMVI melanoma) of the same molecule?
Its TGI is 3.22 µM.

What about the TGI (OVCAR-3 ovarian) of the same molecule?
The TGI was 6.53 µM.

What about the TGI (HS 578T breast) of the same molecule?
Its TGI is 5.02 µM.

And the TGI (RPMI-8226 leukemia)?
Its TGI is 5.88 µM.

And the TGI (786-0 renal)?
The TGI was 3.03 µM.

What about the TGI (NCI-H460 lung) of the same molecule?
The TGI was 3.8 µM.

And the TGI (COLO 205 colon)?
Its TGI is 3.25 µM.

What about the TGI (MDA-MB-435) of the same molecule?
Its TGI is 3.17 µM.

What about the TGI (SK-MEL-2 melanoma) of the same molecule?
The TGI was 5.04 µM.

And the TGI (SK-MEL-28 melanoma)?
Its TGI is 3.52 µM.

What about the TGI (MALME-3M melanoma) of the same molecule?
Its TGI is 3.28 µM.

And the TGI (T-47D breast)?
The TGI was 31.9 µM.

What about the TGI (OVCAR-8 ovarian) of the same molecule?
Its TGI is 3.85 µM.
